Measurements: PMC8080777, “Discovery, optimization, and evaluation of non-bile acid FXR/TGR5 dual agonists” (Scientific Reports, 2021)
Several values for one entry are separate records, joined by “and”; a condition that tells them apart may be missing. Equal values may be shown once. Entries after “also recorded” stand apart in the source; their conditions may differ.

Experiments:
[1] = target: T1, TGR5 (Homo sapiens, UniProt Q8TDU6); assay: TGR5 cAMP assay in CHO cells transfected with TGR5 (cAMP Hunter eXpress, Discover X); assay type: cell-based
T1 construct: host or cells: CHO cells
T1 sequence (Q8TDU6 1-330): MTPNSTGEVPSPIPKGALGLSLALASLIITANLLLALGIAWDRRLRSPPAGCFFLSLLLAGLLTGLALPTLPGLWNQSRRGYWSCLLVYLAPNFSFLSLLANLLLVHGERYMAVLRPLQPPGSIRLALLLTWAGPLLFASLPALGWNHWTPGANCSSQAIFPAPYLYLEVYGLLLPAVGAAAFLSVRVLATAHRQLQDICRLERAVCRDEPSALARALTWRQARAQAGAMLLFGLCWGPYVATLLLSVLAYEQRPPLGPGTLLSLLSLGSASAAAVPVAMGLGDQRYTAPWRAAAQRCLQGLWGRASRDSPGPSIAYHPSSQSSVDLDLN
Experimental: TGR5 agonist activity was evaluated by transfecting CHO cells with TGR5 using the Discover X expression kit (cAMP Hunter eXpress GPCR Assay, Discover X Fremont, CA). Cells were incubated with test compounds for 0.5 h, and intracellular cAMP levels were measured using the multi-mode microplate reader.
(§1) TGR5 agonist activity was evaluated by transfecting CHO cells with TGR5 using the Discover X expression kit (cAMP Hunter eXpress Assay Kit, Discover X Fremont, CA, USA). Cells were incubated with the test compounds for 0.5 h, and intracellular cAMP levels were measured using Multi-Mode Microplate Reader (FlexStation 3, Molecular Devices Inc., San Jose, CA, USA).
Each compound was tested at concentrations of 10, 1, or 0.1 µM in duplicate (n = 2), with the average value shown.
S4. In vitro, in vivo assay, and selectvity. […]
In vitro TGR5 agonist assay protocol
as §1
Each compound was tested at concentrations of 10, 1, or 0.1 µM in duplicate (n=2), with the […]
parameter logistic equation, Y = min + (max - min)/(1 + 10^(n * (log10(EC50) - log10(conc)))), in […]

[2] = target: T1, TGR5; conditions: cited from earlier work
[3] = system: FXR; conditions: cited from earlier work
[4] = target: T2, FXR (Homo sapiens, UniProt Q96RI1); assay: CHO cell-based FXR luciferase reporter assay (Indigo Biosciences)
T2 construct: host or cells: CHO cells
T2 sequence (Q96RI1 1-486): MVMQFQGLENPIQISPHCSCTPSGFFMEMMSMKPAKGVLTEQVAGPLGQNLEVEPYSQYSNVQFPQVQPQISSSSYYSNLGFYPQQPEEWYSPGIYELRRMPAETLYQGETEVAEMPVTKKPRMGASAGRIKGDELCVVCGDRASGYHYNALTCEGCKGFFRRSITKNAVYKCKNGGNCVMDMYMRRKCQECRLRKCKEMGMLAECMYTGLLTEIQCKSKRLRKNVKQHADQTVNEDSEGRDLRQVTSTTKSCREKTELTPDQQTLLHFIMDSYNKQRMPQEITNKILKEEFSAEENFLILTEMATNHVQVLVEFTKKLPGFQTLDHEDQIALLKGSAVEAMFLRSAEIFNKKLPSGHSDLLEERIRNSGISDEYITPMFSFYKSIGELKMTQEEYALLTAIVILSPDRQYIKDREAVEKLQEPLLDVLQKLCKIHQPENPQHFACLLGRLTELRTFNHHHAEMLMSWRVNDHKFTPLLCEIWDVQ
Experimental: To evaluate direct agonist activities against FXR, test compounds were evaluated using a CHO cell-based FXR assay by Indigo Biosciences (State College, PA), in which cells were transfected with an FXR luciferase reporter system.
To directly evaluate the in vitro agonist activity towards FXR, test compounds were evaluated in CHO cells transfected with FXR responsive luciferase reporter (Nuclear Receptor & In Vitro Toxicology Solutions, Indigo Biosciences, State College, PA, USA). […] Each compound was tested in duplicate, and the average value was reported[35],[36].
(§2) The cell recovery medium (CRM, Human Farnesoid X Receptor (NR1H4, FXR reporter assay system, Indigo Biosciences, State College, PA, USA) and compound screening medium (CSM, Human Farnesoid X Receptor (NR1H4, FXR reporter assay system, Indigo Biosciences, State College, PA, USA) were removed from the freezer and thawed in a water bath at 37 °C. Test compounds were dissolved in dimethyl sulfoxide (DMSO, FUJIFILM Wako Pure Chemical Corporation, Osaka city, Osaka, Japan), and the treatment medium was prepared and diluted with CSM to achieve a final concentration of 0.2% total DMSO. The reporter cells were thawed by transferring 3.3 mL CRM at 37 °C into tubes of frozen cells. The tube containing reporter cells was recapped, and it was immediately place in a 37 °C water bath for 5 min. The reporter cells were gently inverted several times, and 100 µL cell suspension was dispensed into each well. One hundred microliters of treatment media was added into wells. Subsequently, the assay plate was kept at 37 °C, and it was incubated with 5% CO2 for 22 h. To prepare luciferase detection reagent (LDR), the detection substrate was gently mixed with detection buffer, media contents were removed from each well, and 100 µL LDR was added to each well of the assay plate. The assay plate was allowed to rest at room temperature for 5 min, and luminescence was quantified using the Multi-Mode Microplate Reader (FlexStation 3, Molecular Devices Inc., San Jose, CA, USA)[36].
S4. In vitro, in vivo assay, and selectvity.
To directly evaluate the in vitro agonist activity towards FXR, test compounds were evaluated in CHO cells transfected with FXR responsive luciferase reporter (Nuclear Receptor & In Vitro Toxicology Solutions, Indigo Biosciences, State College, PA, USA). Cells were incubated with […]
(FlexStation 3, Molecular Devices Inc., San Jose, CA, USA). Efficacies are reported relative to […]
reporter on of 1 µM. Each compound was tested in duplicate, and the average value was […]
as §2, with “sulfoxide (DMSO ,” for “sulfoxide (DMSO,”, “Osaka, Jap an),” for “Osaka, Japan),”, “a 37°C” for “a 37 °C”, “5% CO 2” for “5% CO2”, “using […]” for “using the Multi-Mode Microplate Reader (FlexStation 3, Molecular Devices Inc., San Jose, CA, USA)[36].”

Structure (SMILES)	TGR5 Efficacy (%) (10 µM) ([1]; % vs INT-767 10 µM as 100%)	FXR Efficacy (%) (1 µM) ([4]; % vs OCA 1 µM as 100%)	TGR5 agonist activity (in words) [1]	also measured
Cc1cc2c(CN(C(=O)c3ccncc3C)c3ccc(F)cc3C)cccc2[nH]1 [Compound 8, reference compound]	–	–	–	TGR5 Efficacy (%) (0.1 µM) ([1]; 0.1 µM, % vs INT-767 10 µM as 100%): 84.7%; TGR5 Efficacy (%) (1 µM) ([1]; 1 µM, % vs INT-767 10 µM as 100%): 84.7% and 66.1%; Reported TGR5 activity (in words) [2]: TGR5 agonist; Reported FXR activity (in words) [3]: no agonist or antagonist activity against FXR
CN(C)c1ccc(-c2ccc(CN(C(=O)C3CCC(O)CC3)c3cc(Cl)cc(Cl)c3)cc2)cc1 (centres unmarked) [Compound 13ae]	-1.5%	101.4%	–	FXR agonist activity (in words) [4]: strong FXR activities
CN(C)c1ccc(-c2ccc(CN(C(=O)c3ccncc3Br)c3cc(Cl)cc(Cl)c3)cc2)cc1 [Compound 13y]	-2.0%	51.6%	–	–
Cc1cnccc1C(=O)N(Cc1ccc(-c2ccc(N(C)C)cc2)cc1)c1cc(Cl)cc(Cl)c1 [Compound 13j]	59.7%	62.1%	potent FXR/TGR5 dual agonist activity; also recorded: dual potencies against both FXR and TGR5	FXR agonist activity (in words) [4]: potent FXR/TGR5 dual agonist activity; also recorded: dual potencies against both FXR and TGR5
COC(=O)/C=C/c1cccc(N(Cc2ccc(-c3ccc(N(C)C)cc3)cc2)C(=O)c2ccncc2)c1 [Compound 13b]	-2.8%	16.7%	inactive against TGR5	FXR Efficacy (%) (10 µM) ([4]; % vs OCA 1 µM as 100%): 86.9%

Further lines, with some results ahead:

TGR5 Efficacy (%) (10 µM) ([1]; % vs INT-767 10 µM as 100%)	FXR Efficacy (%) (1 µM) ([4]; % vs OCA 1 µM as 100%)	TGR5 agonist activity (in words) [1]	Structure (SMILES)	also measured
67.6%	98.9%	–	Cc1cnccc1C(=O)N(CC12CCC(c3ccc4c(c3)OCO4)(CC1)CC2)c1cc(Cl)cc(Cl)c1 [Compound 20n]	FXR Efficacy (%) (0.1 µM) ([4]; 0.1 µM, % vs OCA 1 µM as 100%): 73.5%
93.4%	1.9%	good potency against TGR5	Cc1cnccc1C(=O)N(Cc1ccc(-c2ccc(N(C)C)cc2)cc1)c1cc(Cl)ccc1C [Compound 13p]	–
31.1%	47.1%	–	Cc1cnccc1C(=O)N(C[C@H]1CC[C@H](c2ccc(N(C)C)cc2)CC1)c1cc(Cl)cc(Cl)c1 [Compound 20b]	FXR Efficacy (%) (10 µM) ([4]; % vs OCA 1 µM as 100%): 106.8%
